# Source: patent US20210317134A1, “UBIQUITIN-SPECIFIC-PROCESSING PROTEASE 7 (USP7) MODULATORS AND USES THEREOF” (RAPT THERAPEUTICS, INC., priority 2019, published 2021)
# Target: USP7 (Homo sapiens, UniProt Q93009)
# Test: USP7 inhibitory potency (Table 1)
# Type: biochemical
# Sequence of USP7 (Q93009 whole entry): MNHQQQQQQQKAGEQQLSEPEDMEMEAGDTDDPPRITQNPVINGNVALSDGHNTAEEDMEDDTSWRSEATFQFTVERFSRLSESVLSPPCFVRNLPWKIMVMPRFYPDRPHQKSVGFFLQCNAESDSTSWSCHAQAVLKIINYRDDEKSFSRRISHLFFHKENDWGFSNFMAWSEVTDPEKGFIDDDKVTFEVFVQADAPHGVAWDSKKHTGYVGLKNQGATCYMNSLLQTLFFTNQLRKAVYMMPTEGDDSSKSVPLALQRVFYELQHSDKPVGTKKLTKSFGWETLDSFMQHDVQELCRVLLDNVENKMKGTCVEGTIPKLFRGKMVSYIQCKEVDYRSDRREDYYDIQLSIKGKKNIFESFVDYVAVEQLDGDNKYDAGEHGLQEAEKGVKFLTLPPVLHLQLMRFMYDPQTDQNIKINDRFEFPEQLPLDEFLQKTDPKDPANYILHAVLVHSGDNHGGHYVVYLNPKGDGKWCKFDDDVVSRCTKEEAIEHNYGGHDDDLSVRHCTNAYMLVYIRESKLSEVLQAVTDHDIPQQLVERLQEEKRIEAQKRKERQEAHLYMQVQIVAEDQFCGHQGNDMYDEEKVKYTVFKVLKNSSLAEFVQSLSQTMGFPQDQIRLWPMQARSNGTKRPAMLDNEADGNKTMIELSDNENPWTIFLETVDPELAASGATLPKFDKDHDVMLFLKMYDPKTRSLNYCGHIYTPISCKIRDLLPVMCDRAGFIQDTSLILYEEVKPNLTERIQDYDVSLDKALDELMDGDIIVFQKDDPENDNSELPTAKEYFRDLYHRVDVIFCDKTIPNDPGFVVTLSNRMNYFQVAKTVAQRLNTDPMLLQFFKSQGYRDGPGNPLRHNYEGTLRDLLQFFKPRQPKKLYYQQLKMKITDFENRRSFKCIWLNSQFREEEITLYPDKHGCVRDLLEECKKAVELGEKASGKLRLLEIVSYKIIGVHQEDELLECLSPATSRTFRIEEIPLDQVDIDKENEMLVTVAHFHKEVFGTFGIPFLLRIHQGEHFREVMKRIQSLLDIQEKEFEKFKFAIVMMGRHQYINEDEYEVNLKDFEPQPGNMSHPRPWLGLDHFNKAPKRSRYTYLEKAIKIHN
row,SMILES,IC50
1,"Cc1cc2ncnc(-c3cc(Cl)cc4c3O[C@@H](c3onc5c3CNCC5)C4)c2o1 [(R)-3-(5-chloro-7-(6-methylfuro[3,2-d]pyrimidin-4-yl)-2,3-dihydrobenzofuran-2-yl)-4,5,6,7-tetrahydroisoxazolo[4,3-c]pyridine]",< 1000 nM
2,"Clc1cc2c(c(-c3ncnc4ccoc34)c1)O[C@@H](c1onc3c1CNCC3)C2 [(R)-3-(5-chloro-7-(furo[3,2-d]pyrimidin-4-yl)-2,3-dihydrobenzofuran-2-yl)-4,5,6,7-tetrahydroisoxazolo[4,3-c]pyridine]",< 1000 nM
3,"CC[C@@H](O)c1cc2ncnc(-c3cc(Cl)cc4c3O[C@@H](c3onc5c3CNCC5)C4)c2s1 [(R)-1-(4-((R)-5-chloro-2-(4,5,6,7-tetrahydroisoxazolo[4,3-c]pyridin-3-yl)-2,3-dihydrobenzofuran-7-yl)thieno[3,2-d]pyrimidin-6-yl)propan-1-ol]",< 1000 nM
4,"CCc1cc2nccc(-c3cc(Cl)cc4c3O[C@@H](c3onc5c3CNCC5)C4)c2s1 [(R)-3-(5-chloro-7-(2-ethylthieno[3,2-b]pyridin-7-yl)-2,3-dihydrobenzofuran-2-yl)-4,5,6,7-tetrahydroisoxazolo[4,3-c]pyridine]",< 1000 nM
5,"Cn1nc2c(c1[C@H]1Cc3cc(Cl)cc(-c4ncnc5cc(Cl)ccc45)c3O1)CNCC2 [(R)-7-chloro-4-(5-chloro-2-(2-methyl-4,5,6,7-tetrahydro-2H-pyrazolo[4,3-c]pyridin-3-yl)-2,3-dihydrobenzofuran-7-yl)quinazoline]",< 1000 nM
6,"CCC(O)c1cc2nccc(-c3cc(Cl)cc4c3O[C@@H](c3onc5c3CNCC5)C4)c2o1 (stereo partly drawn) [drawing 1522, 1-(7-((R)-5-chloro-2-(4,5,6,7-tetrahydroisoxazolo[4,3-c]pyridin-3-yl)-2,3-dihydrobenzofuran-7-yl)furo[3,2-b]pyridin-2-yl)propan-1-ol]",< 1000 nM
7,"CC(C)C(=O)NCc1cc2nccc(-c3cc(Cl)cc4c3O[C@@H](c3onc5c3CNCC5)C4)c2s1 [(R)-N-((7-(5-chloro-2-(4,5,6,7-tetrahydroisoxazolo[4,3-c]pyridin-3-yl)-2,3-dihydrobenzofuran-7-yl)thieno[3,2-b]pyridin-2-yl)methyl)isobutyramide]",< 1000 nM
8,"CCC(OC)c1cc2nccc(-c3cc(Cl)cc4c3O[C@@H](c3onc5c3CNCC5)C4)c2s1 (stereo partly drawn) [3-((2R)-5-chloro-7-(2-(1-methoxypropyl)thieno[3,2-b]pyridin-7-yl)-2,3-dihydrobenzofuran-2-yl)-4,5,6,7-tetrahydroisoxazolo[4,3-c]pyridine]",< 1000 nM
9,"Clc1cc2c(c(-c3ccnc4ccsc34)c1)O[C@@H](c1[nH]nc3c1CNCC3)C2 [(R)-7-(5-chloro-2-(4,5,6,7-tetrahydro-2H-pyrazolo[4,3-c]pyridin-3-yl)-2,3-dihydrobenzofuran-7-yl)thieno[3,2-b]pyridine]",< 1000 nM
10,"CCC(O)c1cc2nccc(-c3cc(Cl)cc4c3O[C@@H](c3nn(C)c5c3CNCC5)C4)c2s1 (stereo partly drawn) [1-(7-((R)-5-chloro-2-(1-methyl-4,5,6,7-tetrahydro-1H-pyrazolo[4,3-c]pyridin-3-yl)-2,3-dihydrobenzofuran-7-yl)thieno[3,2-b]pyridin-2-yl)propan-1-ol]",< 1000 nM
11,"CCC(O)c1cc2ncnc(-c3cc(Cl)cc4c3O[C@@H](c3c5c(nn3C)CCNC5)C4)c2s1 (stereo partly drawn) [1-(4-((R)-5-chloro-2-(2-methyl-4,5,6,7-tetrahydro-2H-pyrazolo[4,3-c]pyridin-3-yl)-2,3-dihydrobenzofuran-7-yl)thieno[3,2-d]pyrimidin-6-yl)propan-1-ol]",< 1000 nM
12,"CCC(O)c1cc2nccc(-c3cc(Cl)cc4c3O[C@@H](c3ocnc3CNC)C4)c2s1 (stereo partly drawn) [1-(7-((R)-5-chloro-2-(4-((methylamino)methyl)oxazol-5-yl)-2,3-dihydrobenzofuran-7-yl)thieno[3,2-b]pyridin-2-yl)propan-1-ol]",< 1000 nM

# Next, values leading:
row,IC50,SMILES
1,10000 to 30000 nM,"O=C(C1Cc2cc(Cl)cc(-c3ccnc4[nH]ccc34)c2O1)N1CCC(c2ccc(O)cc2)CC1 (stereo not drawn) [(5-chloro-7-(1H-pyrrolo[2,3-b]pyridin-4-yl)-2,3-dihydrobenzofuran-2-yl)(4-(4-hydroxyphenyl)piperidin-1-yl)methanone]"
2,< 1000 nM,"O=C([C@H]1Cc2cc(Cl)cc(-c3ncnc4cc(CN5C(=O)CCC5=O)sc34)c2O1)N1CCNCC1 [(R)-1-((4-(5-chloro-2-(piperazine-1-carbonyl)-2,3-dihydrobenzofuran-7-yl)thieno[3,2-d]pyrimidin-6-yl)methyl)pyrrolidine-2,5-dione]"
3,10000 to 30000 nM,"CN[C@@H]1CCCN(C(=O)[C@H]2Cc3cc(Cl)cc(-c4ccnc5ccsc45)c3O2)C1 [((R)-5-chloro-7-(thieno[3,2-b]pyridin-7-yl)-2,3-dihydrobenzofuran-2-yl)((R)-3-(methylamino)piperidin-1-yl)methanone]"
4,< 1000 nM,"C[C@H]1CCN(Cc2cc3nccc(-c4cc(Cl)cc5c4O[C@@H](C(=O)N4CCNCC4)C5)c3s2)C1=O [(S)-1-((7-((R)-5-chloro-2-(piperazine-1-carbonyl)-2,3-dihydrobenzofuran-7-yl)thieno[3,2-b]pyridin-2-yl)methyl)-3-methylpyrrolidin-2-one]"
5,< 1000 nM,"CC(=O)NCCc1cc2nccc(-c3cc(Cl)cc4c3O[C@@H](C(=O)N3CCNCC3)C4)c2s1 [(R)-N-(2-(7-(5-chloro-2-(piperazine-1-carbonyl)-2,3-dihydrobenzofuran-7-yl)thieno[3,2-b]pyridin-2-yl)ethyl)acetamide]"
6,< 1000 nM,"O=C([C@H]1Cc2cc(Cl)cc(-c3ccnc4cc(CO)sc34)c2O1)N1CCNCC1 [(R)-(5-chloro-7-(2-(hydroxymethyl)thieno[3,2-b]pyridin-7-yl)-2,3-dihydrobenzofuran-2-yl)(piperazin-1-yl)methanone]"
7,< 1000 nM,"O=C([C@H]1Cc2cc(Cl)cc(-c3ccnc4ccsc34)c2O1)N1CCC(N2CCCC2)CC1 [(R)-(5-chloro-7-(thieno[3,2-b]pyridin-7-yl)-2,3-dihydrobenzofuran-2-yl)(4-(pyrrolidin-1-yl)piperidin-1-yl)methanone]"
8,1000 to 10000 nM,"O=C([C@H]1Cc2cc(Cl)cc(-c3ccnc4ccsc34)c2O1)N1CCC(N2CCCCC2)CC1 [(R)-[1,4′-bipiperidin]-1′-yl(5-chloro-7-(thieno[3,2-b]pyridin-7-yl)-2,3-dihydrobenzofuran-2-yl)methanone]"
9,< 1000 nM,"CC[C@@H](O)c1cc2nccc(-c3cc(Cl)cc4c3O[C@@H](C(=O)N3CCNCC3)C4)c2s1 [((R)-5-chloro-7-(2-((R)-1-hydroxypropyl)thieno[3,2-b]pyridin-7-yl)-2,3-dihydrobenzofuran-2-yl)(piperazin-1-yl)methanone]"
10,10000 to 30000 nM,"O=C([C@H]1Cc2cc(Cl)cc(-c3ccnc4cc(CO)sc34)c2O1)N1CC[C@H](O)C1 [((R)-5-chloro-7-(2-(hydroxymethyl)thieno[3,2-b]pyridin-7-yl)-2,3-dihydrobenzofuran-2-yl)((S)-3-hydroxypyrrolidin-1-yl)methanone]"
11,10000 to 30000 nM,"COc1cccc2c(-c3cc(Cl)cc4c3OC(C(=O)N3CCNCC3)C4)ccnc12 (stereo not drawn) [(5-chloro-7-(8-methoxyquinolin-4-yl)-2,3-dihydrobenzofuran-2-yl)(piperazin-1-yl)methanone]"
12,1000 to 10000 nM,"CNC(=O)c1ccc2c(-c3cc(Cl)cc4c3OC(C(=O)N3CCNCC3)C4)ccnc2c1 (stereo not drawn) [4-(5-chloro-2-(piperazine-1-carbonyl)-2,3-dihydrobenzofuran-7-yl)-N-methylquinoline-7-carboxamide]"
